# Laboratory results taken from patent US8916499B2, “Herbicidal compositions comprising 4-amino-3-chloro-5-fluoro-6-(4-chloro-2-fluoro-3-methoxyphenyl) pyridine-2-carboxylic acid or a derivative thereof and a protoporphyrinogen oxidase inhibitor” (Dow AgroSciences LLC, priority 2012, dated 2014).
# How the values were obtained:
# [1] = tested on: LEFCH; assay: Postemergence foliar-applied weed control, direct seeded rice, greenhouse (Example I); format: in vivo, Leptochloa chinensis (L.) Nees; conditions: g ae/ha Compound A n-Butyl Ester+g ai/ha carfentrazone-ethyl: r11 16+0, r12 0+28, r13 16+28
# [2] = tested on: IPOHE; assay: as above; format: in vivo, Ipomoea hederacea Jacq.
# [3] = tested on: ECHOR; assay: In-water applied weed control, transplanted paddy rice, greenhouse (Example II); format: in vivo, Echinochloa oryzoides (Ard.) Fritsch
# [4] = tested on: LEFCH; assay: as above; format: in vivo, Leptochloa chinensis (L.) Nees; conditions: 35 g ae/ha alone
# [5] = tested on: IPOHE; assay: Pre-emergence soil-applied weed control, greenhouse (Example IV); format: in vivo, Ipomoea hederacea (L.) Jacq.
# Source text: Seeds or nutlets of the desired test plant species were planted in a soil matrix prepared by mixing a loam soil (32 percent silt, 23 percent clay, and 45 percent sand, with a pH of about 6.5 and an organic matter content of about 1.9 percent) and calcareous grit in an 80 to 20 ratio. The soil matrix was contained in plastic pots with a volume of 1 quart and a surface area of 83.6 square centimeters (cm^2).
# Treatments consisted of the benzyl ester of 4-amino-3-chloro-5-fluoro-6-(4-chloro-2-fluoro-3-methoxy-phenyl)pyridine-2-carboxylic acid (compound A) formulated as an SC (suspension concentrate) and various herbicidal components alone and in combination. Forms of compound A were applied on an acid equivalent basis.
# Other herbicidal components were applied on an acid equivalent or active ingredient basis and included the protoporphyrinogen oxidase (PPO)-inhibiting herbicides, flumioxazin formulated as Payload® and oxadiazon formulated as Ronstar® 50W.
# Treatment requirements were calculated based upon the rates being tested, the concentration of active ingredient or acid equivalent in the formulation, and a 12 mL application volume at a rate of 187 L/ha.
# For treatments comprised of formulated compounds, measured amounts of compounds were placed individually in 25 mL glass vials and diluted in a volume of 1.25% (v/v) Agri-Dex® crop oil concentrate (COC) to obtain 12× stock solutions. […] Application solutions were prepared by adding an appropriate amount of each stock solution (e.g., 1 mL) and diluted to the appropriate final concentrations with the addition of 10 mL of an aqueous mixture of 1.25% (v/v) COC so that the final spray solutions contained 1.25% (v/v) COC.
# All stock solutions and applications solutions were visually inspected for compound compatibility prior to application. Spray solutions were applied to the soil with an overhead Mandel track sprayer equipped with a 8002E nozzles calibrated to deliver 187 L/ha over an application area of 0.503 m^2 at a spray height of 18 inches (46 cm) above average pot height. Control pots were sprayed in the same manner with the solvent blank.
# The treated and control pots were placed in a greenhouse and top watered as needed. When required to ensure good germination and healthy plants, a fungicide treatment and/or other chemical or physical treatment was applied. The pots were maintained in a greenhouse with an approximate 14 hr photoperiod which was maintained at about 29° C. during the day and 26° C. during the night. Nutrients (Peters® Excel 15-5-15 5-Ca 2-Mg) were applied in the irrigation solution as needed and water was added on a regular basis. Supplemental lighting was provided with overhead metal halide 1000-Watt lamps as necessary. After approximately 4 weeks, the condition of the test plants as compared with that of the untreated plants was determined visually and scored on a scale of 0 to 100 percent where 0 corresponds to no injury or growth inhibition and 100 corresponds to complete kill.
# Colby's equation was used to determine the herbicidal effects expected from the mixtures (Colby, S. R. 1967. Calculation of the synergistic and antagonistic response of herbicide combinations. Weeds 15:20-22.).
# The following equation was used to calculate the expected activity of mixtures containing two active ingredients, A and B: Expected=A+B−(A×B/100)
# [6] = tested on: DIGSA; assay: Postemergence foliar-applied weed control, direct seeded rice, greenhouse (Example I); format: in vivo, Digitaria sanguinalis (L.) Scop.
# [7] = tested on: ECHCG; assay: as above; format: in vivo, Echinochloa crusgalli (L.) Beauv.
# [8] = tested on: ECHCO; assay: as above; format: in vivo, Echinochloa colona (L.) Link; conditions: g ae/ha Compound A Acid+g ai/ha oxyfluorfen (SC): r24 4.38+0, r25 8.75+0, r26 0+90, r27 4.38+90, r28 8.75+90
# [9] = tested on: CYPRO; assay: In-water applied weed control, transplanted paddy rice, greenhouse (Example II); format: in vivo, Cyperus rotundus L.
# [10] = tested on: SCPJU; assay: as above; format: in vivo, Schoenoplectus juncoides (Roxb.) Palla
# [11] = tested on: ECHCG; assay: as above; format: in vivo, Echinochloa crus-galli (L.) P. Beauv.; conditions: 56.25 g ai/ha alone
# [12] = tested on: FIMMI; assay: as above; format: in vivo, Fimbristylis miliacea (L.) Vahl
# [13] = g ae/ha Compound A n-Butyl Ester+g ai/ha oxadiazon: r11 17.5+0, r12 0+250, r13 17.5+250
smiles,measurement,setting,value
CCCCOC(=O)c1nc(-c2ccc(Cl)c(OC)c2F)c(F)c(N)c1Cl [Compound A n-Butyl Ester],Visual Weed Control (%) - 19 DAA LEFCH Obs,[1],10%
same,Visual Weed Control (%) - 21 DAA IPOHE Obs,[2]; [13],40%
same,Visual Weed Control (%) - 21 DAA ECHOR Obs,[3]; 35 g ae/ha alone,25%
same,Visual Weed Control (%) - 21 DAA ECHOR Obs,[3]; 70 g ae/ha alone,38%
same,Visual Weed Control (%) - 21 DAA LEFCH Obs,[4],8%
"C#CCOc1cc(-n2nc(C(C)(C)C)oc2=O)c(Cl)cc1Cl [Oxadiargyl, 3-[2,4-dichloro-5-(2-propynyloxy)phenyl]-5-(1,1-dimethylethyl)-1,3,4-oxadiazol-2(3H)-one]",Visual Weed Control (%) - 22 DAA IPOHE Obs,"[2]; g ae/ha Compound A Acid+g ai/ha oxadiargyl: r10 4.38+0, r11 8.75+0, r12 17.5+0, r13 0+50, r14 4.38+50, r15 8.75+50, r16 17.5+50",25%
same,Visual Weed Control (%) - 22 DAA IPOHE Obs,"[2]; g ae/ha Compound A Benzyl Ester+g ai/ha oxadiargyl: r11 4.38+0, r12 8.75+0, r13 0+50, r14 4.38+50, r15 8.75+50",25%
"CC(C)Oc1cc(-n2nc(C(C)(C)C)oc2=O)c(Cl)cc1Cl [Oxadiazon, 3-[2,4-dichloro-5-(1-methylethoxy)phenyl]-5-(1,1-dimethylethyl)-1,3,4-oxadiazol-2(3H)-one]",Visual Weed Control (%) - 21 DAA IPOHE Obs,"[2]; g ae/ha Compound A Benzyl Ester+g ai/ha oxadiazon: r33 17.5+0, r34 0+250, r35 17.5+250",5%
same,Visual Weed Control (%) - 21 DAA IPOHE Obs,[2]; [13],5%
same,Visual Weed Control (%) - 20 DAA IPOHE Obs,"[2]; second section, g ae/ha Compound A Acid+g ai/ha oxadiazon: r23 17.5+0, r24 35+0, r25 0+250, r26 17.5+250, r27 35+250",5%
same,Visual Weed Control (%) - 21 DAA ECHOR Obs,[3]; 62.5 g ai/ha alone,15%
same,Visual Weed Control (%) - 21 DAA ECHOR Obs,[3]; 250 g ai/ha alone,18%
same,Visual Weed Control (%) - 21 DAA ECHOR Obs,"[3]; second block, g ae/ha Compound A Acid+g ai/ha oxadiazon: r22 35+0, r23 70+0, r24 0+250, r25 35+250, r26 70+250",18%
same,Visual Weed Control (%) - 32 DAA IPOHE Obs,[5]; 560 g ai/ha alone,50%
same,Visual Weed Control (%) - 32 DAA IPOHE Obs,[5]; 1120 g ai/ha alone,100%
"CCOc1cc(Oc2ccc(C(F)(F)F)cc2Cl)ccc1[N+](=O)[O-] [Oxyfluorfen, 2-chloro-1-(3-ethoxy-4-nitrophenoxy)-4-(trifluoromethyl)benzene, reference compound]",Visual Weed Control (%) - 23 DAA DIGSA Obs,"[6]; g ae/ha Compound A Benzyl Ester+g ai/ha oxyfluorfen (SC): r14 4.38+0, r15 8.75+0, r16 17.5+0, r17 0+180, r18 4.38+180, r19 8.75+180, r20 17.5+180",60%
same,Visual Weed Control (%) - 21 DAA DIGSA Obs,"[6]; g ae/ha Compound A Benzyl Ester+g ai/ha oxyfluorfen (technical): r15 4.38+0, r16 8.75+0, r17 17.5+0, r18 0+180, r19 4.38+180, r20 8.75+180, r21 17.5+180",50%
same,Visual Weed Control (%) - 23 DAA ECHCG Obs,"[7]; g ae/ha Compound A Acid+g ai/ha oxyfluorfen (SC): r13 4.38+0, r14 8.75+0, r15 17.5+0, r16 0+180, r17 4.38+180, r18 8.75+180, r19 17.5+180",30%
same,Visual Weed Control (%) - 23 DAA ECHCO Obs,[8],50%
same,Visual Weed Control (%) - 23 DAA IPOHE Obs,"[2]; g ae/ha Compound A Benzyl Ester+g ai/ha oxyfluorfen (SC): r36 4.38+0, r37 8.75+0, r38 17.5+0, r39 0+90, r40 0+180, r41 4.38+90, r42 8.75+90, r43 17.5+90, r44 4.38+180, r45 8.75+180, r46 17.5+180",85%
same,Visual Weed Control (%) - 21 DAA CYPRO Obs,"[9]; g ae/ha Compound A Acid+g ai/ha oxyfluorfen (SC): r28 16+0, r29 32+0, r30 64+0, r31 0+135, r32 0+270, r33 16+135, r34 32+135, r35 64+135, r36 16+270, r37 32+270, r38 64+270",0%
same,Visual Weed Control (%) - 22 DAA CYPRO Obs,"[9]; g ae/ha Compound A Acid+g ai/ha oxyfluorfen (technical): r11 10.6+0, r12 21.2+0, r13 42.4+0, r14 0+180, r15 10.6+180, r16 21.2+180, r17 42.4+180",50%
same,Visual Weed Control (%) - 21 DAA CYPRO Obs,"[9]; g ae/ha Compound A Benzyl Ester+g ai/ha oxyfluorfen (SC): r11 32+0, r12 0+135, r13 0+270, r14 32+135, r15 32+270",0%
same,Visual Weed Control (%) - 22 DAA SCPJU Obs,"[10]; g ae/ha Compound A Acid+g ai/ha oxyfluorfen (technical): r19 8.75+0, r20 17.5+0, r21 35+0, r22 0+180, r23 0+360, r24 8.75+180, r25 17.5+180, r26 35+180, r27 8.75+360, r28 17.5+360, r29 35+360",0%
"CC(C)=C1OC(=O)N(c2cc(OC3CCCC3)c(Cl)cc2F)C1=O [Pentoxazone, 3-[4-chloro-5-(cyclopentyloxy)-2-fluorophenyl]-5-(1-methylethylidene)-2,4-oxazolidinedione]",Visual Weed Control (%) - 21 DAA ECHCG Obs,[11],0%
same,Visual Weed Control (%) - 21 DAA CYPRO Obs,[9]; 56.25 g ai/ha alone,0%
same,Visual Weed Control (%) - 21 DAA CYPRO Obs,[9]; 112.5 g ai/ha alone,0%
same,Visual Weed Control (%) - 21 DAA SCPJU Obs,[10]; 56.25 g ai/ha alone,0%
same,Visual Weed Control (%) - 21 DAA SCPJU Obs,[10]; 112.5 g ai/ha alone,0%
same,Visual Weed Control (%) - 21 DAA FIMMI Obs,[12]; 56.25 g ai/ha alone,25%
same,Visual Weed Control (%) - 21 DAA FIMMI Obs,[12]; 112.5 g ai/ha alone,20%
"CCOC(=O)COc1cc(-c2nn(C)c(OC(F)F)c2Cl)c(F)cc1Cl [Pyraflufen-ethyl, ethyl 2-[2-chloro-5-[4-chloro-5-(difluoromethoxy)-1-methyl-1H-pyrazol-3-yl]-4-fluorophenoxy]acetate, reference compound]",Visual Weed Control (%) - 21 DAA ECHCG Obs,"[7]; g ae/ha Compound A Benzyl Ester+g ai/ha pyraflufen-ethyl: r11 8+0, r12 0+5.3, r13 0+10.6, r14 8+5.3, r15 8+10.6",15%
